Measured values: US20260167637A1, “NLRP3 INFLAMMASOME INHIBITOR AND USE THEREOF” (TransThera Sciences (Nanjing), Inc., priority 2022, published 2026)

Assays:
[1] = target: T1, THP-1 cell NLRP3 (Homo sapiens, UniProt Q96P20); assay: Inhibitory activity against cell NLRP3 inflammasomes in THP-1 cells (LPS + nigericin, ELISA of supernatant); format: cell-based; conditions: PMA-differentiated THP-1 cells, LPS 500 ng/mL 3 h, compound 1 h, nigericin 30 min; human IL-10 (so in the source) in supernatant by ELISA
T1 construct: endogenous in cells; host or cells: THP-1 cells, PMA-differentiated, stimulated with LPS and nigericin
Method in brief: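 PMA-differentiated (10 ng/mL, 16 h) THP-1 cells primed with 500 ng/mL LPS for 3 h in serum-free medium, then compound for 1 h (DMSO stock diluted 1:1000). Nigericin added for 30 min at 37 °C; IL-1β (printed as IL-10) in supernatant measured by ELISA.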

[2] = Pharmacokinetic study in mice; format: in vivo, female C57BL/6J mice; conditions: female, C57BL/6J, mouse, plasma; for clearance: read-out: Cl—obs iv (clearance rate) (converted); for Vd: read-out: Vss iv (distribution volume); for bioavailability: po 10 mg/kg vs iv 5 mg/kg, read-out: F% (absolute bioavailability); for Tmax: median, read-out: Tmax po (time to peak plasma concentration); for Cmax: read-out: Cmax po (peak concentration)
Method in brief: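 Female C57BL/6J mice received compound in 5% DMSO/20% (30% solutol)/75% saline at 10 mg/kg intragastrically (sampling 15 min–24 h) or 5 mg/kg intravenously (sampling 5 min–24 h). Plasma was acetonitrile-precipitated with tolbutamide internal standard and analysed by LC-MS/MS. PK parameters were derived by NCA, with Tmax as a median.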

[3] = Pharmacokinetic study in male SD rats; format: in vivo; conditions: rat, plasma; for clearance: read-out: Cl—obs iv (clearance rate) (converted); for Vd: read-out: Vss iv (distribution volume); for bioavailability: po 5 mg/kg vs iv 1 mg/kg, read-out: F% (absolute bioavailability); for Tmax: median, read-out: Tmax po (time to peak plasma concentration); for Cmax: read-out: Cmax po (peak concentration)
Protocol: Experimental Example 4: Pharmacokinetic Study of Compounds in Male SD Rats
(§1) The compounds were prepared into solutions using a mixed vehicle composed of 5% dimethyl sulfoxide, 20% (30% solutol), and 75% normal saline. The compound solutions were intragastrically administered to male SD rats at a dose of 5.0 mg/kg, and the blood collection time points were: 15 min, 30 min, 1 h, 2 h, 4 h, 6 h, 8 h, 10 h, and 24 h.
as §1, with “intravenously injected into” for “intragastrically administered to”, “1.0” for “5.0”, “were: 5 min,” for “were:”, “4h,” for “4 h,”, “8h,” for “8 h,”
Intravenous catheterization was performed on the animals the day before the administration. After the administration, blood samples of about 300 μL were collected from the jugular vein and placed into anticoagulation tubes containing EDTA-K2. The blood samples were centrifuged at 5000 rpm at 4° C. for 10 min to give plasma samples. The plasma samples were prepared within 30 min after blood collection. The plasma samples were stored in a −80° C. freezer before testing.

[4] = iv 5 mg/kg, read-out: AUClast iv (0-24 h)
[5] = iv 5 mg/kg, read-out: tz1/2 iv (terminal half-life) (converted)
[6] = po 10 mg/kg, read-out: AUClast po (0-24 h)
[7] = po 10 mg/kg, read-out: tz1/2 po (terminal half-life) (converted)
[8] = iv 1 mg/kg, read-out: AUClast iv (0-24 h)
[9] = iv 1 mg/kg, read-out: tz1/2 iv (terminal half-life) (converted)
[10] = po 5 mg/kg, read-out: AUClast po (0-24 h)
[11] = po 5 mg/kg, read-out: tz1/2 po (terminal half-life) (converted)

T1 sequence (Q96P20 whole entry): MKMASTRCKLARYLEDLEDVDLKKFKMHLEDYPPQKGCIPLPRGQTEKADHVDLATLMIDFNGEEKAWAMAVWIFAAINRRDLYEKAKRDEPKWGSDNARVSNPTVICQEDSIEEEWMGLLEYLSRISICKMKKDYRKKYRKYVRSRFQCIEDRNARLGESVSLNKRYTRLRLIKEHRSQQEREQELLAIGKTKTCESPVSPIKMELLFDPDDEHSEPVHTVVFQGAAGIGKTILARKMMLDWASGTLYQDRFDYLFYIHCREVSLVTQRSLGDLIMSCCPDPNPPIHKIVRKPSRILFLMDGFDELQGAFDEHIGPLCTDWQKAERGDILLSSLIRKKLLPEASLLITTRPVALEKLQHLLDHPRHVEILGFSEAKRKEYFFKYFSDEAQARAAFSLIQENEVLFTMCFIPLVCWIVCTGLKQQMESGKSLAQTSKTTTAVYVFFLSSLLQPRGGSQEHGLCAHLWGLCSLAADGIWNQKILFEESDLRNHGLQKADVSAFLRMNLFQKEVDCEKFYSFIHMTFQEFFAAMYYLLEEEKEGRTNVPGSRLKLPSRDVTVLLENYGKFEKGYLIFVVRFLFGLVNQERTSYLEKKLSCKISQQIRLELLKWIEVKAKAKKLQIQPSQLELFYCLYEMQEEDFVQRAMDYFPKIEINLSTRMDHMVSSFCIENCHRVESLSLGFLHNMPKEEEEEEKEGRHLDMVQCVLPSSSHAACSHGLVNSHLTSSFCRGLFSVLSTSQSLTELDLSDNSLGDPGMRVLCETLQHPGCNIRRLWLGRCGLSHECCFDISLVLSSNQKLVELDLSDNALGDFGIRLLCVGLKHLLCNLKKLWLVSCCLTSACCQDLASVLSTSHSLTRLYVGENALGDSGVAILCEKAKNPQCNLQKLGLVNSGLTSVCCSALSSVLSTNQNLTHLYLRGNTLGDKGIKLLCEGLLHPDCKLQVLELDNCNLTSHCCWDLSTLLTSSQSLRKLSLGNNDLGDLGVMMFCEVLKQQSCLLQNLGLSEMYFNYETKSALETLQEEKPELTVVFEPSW

Row | IC50 [1] [pM] | AUC(0-t) [2, 4] [ng·h/mL] | clearance ([2]; iv 5 mg/kg) [mL/min/kg] | Vd ([2]; iv 5 mg/kg) [L/kg] | half-life [2, 5] [h] | bioavailability [2] [%] | Tmax ([2]; po 10 mg/kg) [h] | AUC(0-t) [2, 6] [ng·h/mL] | Cmax ([2]; po 10 mg/kg) [ng/mL] | half-life [2, 7] [h] | AUC(0-t) [3, 8] [ng·h/mL] | clearance ([3]; iv 1 mg/kg) [mL/min/kg] | Vd ([3]; iv 1 mg/kg) [L/kg] | half-life [3, 9] [h] | bioavailability [3] [%] | Tmax ([3]; po 5 mg/kg) [h] | AUC(0-t) [3, 10] [ng·h/mL] | Cmax ([3]; po 5 mg/kg) [ng/mL] | half-life [3, 11] [h] | Compound
1 | 2400 | 3230 | 25.7 | 1.65 | 0.92 | 85.7 | 0.5 | 5530 | 3030 | 0.983 | 1860 | 7.95 | 2.15 | 3.24 | 81 | 0.5 | 8480 | 1260 | 3.54 | C#Cc1ccc(-c2nnc(N[C@@H]3CCCN(C)C3)c(=O)n2C)c(O)c1 [Compound 23, (R)-3-(4-ethynyl-2-hydoxyphenyl)-4-methyl-6-((1-methylpiperidin-3-yl)amino)-1,2,4-triazin-5(4H)-one]
2 | 700 | 11400 | 7.27 | 1.47 | 3.57 | 83.7 | 1 | 19100 | 4130 | 3.18 | 1920 | 8.38 | 3.28 | 5.63 | 71.5 | 4 | 6840 | 629 | 5.19 | C#Cc1ccc(-c2nnc(N[C@@H]3CCCN(CCO)C3)cc2C2CC2)c(O)c1 [Compound 45, (R)-2-(4-Cyclopropyl-6-((1-(2-hydroxyethyl)piperidin-3-yl)amino)pyridazin-3-yl)-5-ethynylphenol]
3 | 1100 |  |  |  |  |  |  |  |  |  |  |  |  |  |  |  |  |  |  | C#Cc1ccc(-c2nnc(N[C@@H]3CCCN(C)C3)cc2C(C)C)c(O)c1 [Compound 81, (R)-5-ethynyl-2-(4-isopropyl-6-((1-methylpiperidin-3-yl)amino)pyridazin-3-yl)phenol]
4 | 600 |  |  |  |  |  |  |  |  |  |  |  |  |  |  |  |  |  |  | C#Cc1ccc(-c2nnc(N[C@@H]3CCCN(C)C3)c(C#N)c2C)c(O)c1 [Compound 103, (R)-6-(4-ethynyl-2-hydroxyphenyl)-5-methyl-3-((1-methylpiperidin-3-yl)amino)pyridazine-4-carbonitrile]
